Settings: 293.15 K, Liquid, Vibrating tube method

CCCCCCCCCC [decane]
Settings | mass density [kg/m3]
28146 kPa | 749.4
28177 kPa | 749.5
28205 kPa | 749.5
28236 kPa | 749.5
28261 kPa | 749.4
28289 kPa | 749.5
28321 kPa | 749.5
28349 kPa | 749.5
28373 kPa | 749.5
28405 kPa | 749.5
28425 kPa | 749.6
28454 kPa | 749.5
28482 kPa | 749.6
28507 kPa | 749.6
28527 kPa | 749.6
28552 kPa | 749.5
28597 kPa | 749.7
28622 kPa | 749.7
28643 kPa | 749.6
28663 kPa | 749.8
28687 kPa | 749.7
28712 kPa | 749.7
28749 kPa | 749.8
28770 kPa | 749.7
28807 kPa | 749.8
28836 kPa | 749.7
28865 kPa | 749.9
28886 kPa | 749.9
28919 kPa | 749.9
28945 kPa | 749.9
28974 kPa | 749.9
28999 kPa | 749.9
29029 kPa | 749.9
29050 kPa | 749.9
29084 kPa | 749.9
29114 kPa | 750
29149 kPa | 749.9
29175 kPa | 750
29213 kPa | 750
29232 kPa | 750.1
29263 kPa | 750.1
29295 kPa | 750.1
29326 kPa | 750.1
29350 kPa | 750.1
29376 kPa | 750.2
29396 kPa | 750.1
29419 kPa | 750.1
29439 kPa | 750.2
29470 kPa | 750.3
29494 kPa | 750.2
29518 kPa | 750.3
29549 kPa | 750.2
29574 kPa | 750.3
29600 kPa | 750.3
29620 kPa | 750.3
29645 kPa | 750.3
29668 kPa | 750.3
29701 kPa | 750.3
29724 kPa | 750.4
29760 kPa | 750.4
29780 kPa | 750.5
29804 kPa | 750.3
29828 kPa | 750.5
29852 kPa | 750.4
29877 kPa | 750.4
29904 kPa | 750.4
29931 kPa | 750.5
29960 kPa | 750.4
29996 kPa | 750.5
30021 kPa | 750.6
30041 kPa | 750.6
30078 kPa | 750.6
30098 kPa | 750.5
30123 kPa | 750.6
30144 kPa | 750.7
30168 kPa | 750.7
30194 kPa | 750.7
30219 kPa | 750.7
30248 kPa | 750.7
30273 kPa | 750.8
30294 kPa | 750.7
30328 kPa | 750.8
30358 kPa | 750.8
30393 kPa | 750.9
30419 kPa | 750.8
30455 kPa | 750.9
30479 kPa | 750.8
30506 kPa | 750.8
30546 kPa | 750.8
30560 kPa | 750.8
30576 kPa | 750.9
30591 kPa | 750.9
30604 kPa | 751
30620 kPa | 750.9
30641 kPa | 750.9
30659 kPa | 750.9
30682 kPa | 751
30703 kPa | 751.1
30721 kPa | 751
30739 kPa | 751
30752 kPa | 751
30771 kPa | 751
30795 kPa | 751
30813 kPa | 751.1
30826 kPa | 751.1
30845 kPa | 751.1
30866 kPa | 751
30887 kPa | 751.1
30908 kPa | 751.1
30924 kPa | 751
30942 kPa | 751.1
30955 kPa | 751.1
30977 kPa | 751.1
30995 kPa | 751.1
31014 kPa | 751.1
31028 kPa | 751.2
31044 kPa | 751.1
31057 kPa | 751.1
31074 kPa | 751.2
31090 kPa | 751.2
31106 kPa | 751.2
31130 kPa | 751.3
31147 kPa | 751.3
31168 kPa | 751.3
31188 kPa | 751.3
31207 kPa | 751.3
31224 kPa | 751.3
31243 kPa | 751.2
31260 kPa | 751.3
31279 kPa | 751.3
31295 kPa | 751.4
31314 kPa | 751.3
31339 kPa | 751.3
31356 kPa | 751.4
31375 kPa | 751.4
31391 kPa | 751.3
31412 kPa | 751.3
31425 kPa | 751.4
31441 kPa | 751.4
31455 kPa | 751.5
31472 kPa | 751.3
31489 kPa | 751.4
31503 kPa | 751.5
31520 kPa | 751.5
31542 kPa | 751.4
31564 kPa | 751.5
31581 kPa | 751.5
31601 kPa | 751.5
31615 kPa | 751.4
31636 kPa | 751.4
31651 kPa | 751.6
31670 kPa | 751.5
31687 kPa | 751.5
31710 kPa | 751.7
31724 kPa | 751.8
31738 kPa | 751.5
31755 kPa | 751.5
31774 kPa | 751.6
31797 kPa | 751.5
31811 kPa | 751.6
31831 kPa | 751.7
31847 kPa | 751.7
31864 kPa | 751.7
31885 kPa | 751.7
31907 kPa | 751.7
31928 kPa | 751.6
31944 kPa | 751.6
31965 kPa | 751.9
31989 kPa | 751.7
32005 kPa | 751.8
32027 kPa | 751.7
32043 kPa | 751.7
32061 kPa | 751.8
32081 kPa | 751.9
32100 kPa | 751.8
32124 kPa | 751.9
32148 kPa | 751.9
32167 kPa | 751.8
32191 kPa | 751.8
32207 kPa | 751.9
32230 kPa | 751.9
32246 kPa | 751.8
32266 kPa | 751.9
32282 kPa | 751.8
32299 kPa | 751.9
32324 kPa | 752
32345 kPa | 752
32362 kPa | 751.9
32379 kPa | 751.9
32400 kPa | 751.9
32420 kPa | 752
32445 kPa | 752
32462 kPa | 751.9
32478 kPa | 752
32498 kPa | 752
32520 kPa | 752.1
32537 kPa | 751.9
32555 kPa | 752.1
32572 kPa | 752.1
32592 kPa | 752.2
32612 kPa | 752
32637 kPa | 752.2
32657 kPa | 752.1
32673 kPa | 752.1
32690 kPa | 752.1
32716 kPa | 752.1
32733 kPa | 752.2
32750 kPa | 752.1
32770 kPa | 752.1
32790 kPa | 752.2
32808 kPa | 752.2
32825 kPa | 752.3
32848 kPa | 752.2
32865 kPa | 752.4
32888 kPa | 752.3
32911 kPa | 752.2
32930 kPa | 752.4
32953 kPa | 752.4
32972 kPa | 752.4
32993 kPa | 752.3
33014 kPa | 752.3
33038 kPa | 752.3
33061 kPa | 752.4
33080 kPa | 752.4
33103 kPa | 752.3
33132 kPa | 752.4
33150 kPa | 752.5
33180 kPa | 752.4
33203 kPa | 752.4
33218 kPa | 752.4
33239 kPa | 752.5
33260 kPa | 752.3
33279 kPa | 752.4
33304 kPa | 752.5
33334 kPa | 752.5
33349 kPa | 752.4
33373 kPa | 752.6
33397 kPa | 752.7
33416 kPa | 752.7
33440 kPa | 752.5
33465 kPa | 752.6
33484 kPa | 752.5
33514 kPa | 752.6
33536 kPa | 752.6
33555 kPa | 752.6
33576 kPa | 752.6
33606 kPa | 752.7
33631 kPa | 752.8
33649 kPa | 752.6
33667 kPa | 752.8
33692 kPa | 752.7
33710 kPa | 752.8
33738 kPa | 752.8
33760 kPa | 752.7
33791 kPa | 752.9
33807 kPa | 752.8
33829 kPa | 752.8
33848 kPa | 752.8
33896 kPa | 752.8
33919 kPa | 752.9
33934 kPa | 752.9
33961 kPa | 753
33976 kPa | 752.9
33992 kPa | 752.9
34010 kPa | 752.9
34029 kPa | 752.9
34050 kPa | 753
34069 kPa | 753
34090 kPa | 752.9
34112 kPa | 753
34129 kPa | 753.1
34148 kPa | 753
34176 kPa | 753
34198 kPa | 752.9
